Among the data in paper PMC6757289, “Design and Characterization of SGK3-PROTAC1, an Isoform Specific SGK3 Kinase PROTAC Degrader” (ACS Chemical Biology, 2019) are remaining activity values, retold here.

What all share (assay): kinase profiling panel
Holding throughout (type): biochemical
Conditions in all cases: read-out: % Activity Remaining

One experiment addresses T1, GCK (Homo sapiens, UniProt Q12851).
T1 sequence (Q12851 1-820): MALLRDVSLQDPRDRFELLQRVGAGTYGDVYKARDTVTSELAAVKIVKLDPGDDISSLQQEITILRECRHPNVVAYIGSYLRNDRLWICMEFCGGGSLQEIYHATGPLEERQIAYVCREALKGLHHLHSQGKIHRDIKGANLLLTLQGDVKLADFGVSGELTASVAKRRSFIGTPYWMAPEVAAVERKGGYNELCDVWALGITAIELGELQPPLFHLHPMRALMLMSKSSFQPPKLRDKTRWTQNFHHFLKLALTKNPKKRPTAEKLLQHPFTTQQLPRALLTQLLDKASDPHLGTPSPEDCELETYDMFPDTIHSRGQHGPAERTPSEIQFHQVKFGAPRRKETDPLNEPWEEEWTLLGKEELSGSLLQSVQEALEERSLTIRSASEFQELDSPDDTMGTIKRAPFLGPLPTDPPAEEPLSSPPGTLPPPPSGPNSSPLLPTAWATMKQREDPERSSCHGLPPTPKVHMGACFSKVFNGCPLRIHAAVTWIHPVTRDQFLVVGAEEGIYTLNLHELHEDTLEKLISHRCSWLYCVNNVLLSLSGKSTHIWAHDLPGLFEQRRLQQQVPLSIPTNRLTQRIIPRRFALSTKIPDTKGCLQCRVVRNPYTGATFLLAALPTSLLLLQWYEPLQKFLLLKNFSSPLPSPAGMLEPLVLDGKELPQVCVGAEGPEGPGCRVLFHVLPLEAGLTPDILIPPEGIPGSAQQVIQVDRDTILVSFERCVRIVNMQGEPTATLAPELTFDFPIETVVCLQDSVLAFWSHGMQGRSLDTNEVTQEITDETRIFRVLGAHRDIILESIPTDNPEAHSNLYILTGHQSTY
An excerpt:
(§1) Protein kinase profiling against a Dundee panel of 140 protein kinases was undertaken at the International Centre for Protein Kinase Profiling. The result for each kinase was presented as a mean kinase activity of the reaction taken in triplicate relative to a control sample treated with DMSO. Assay conditions and abbreviations are available at http://www.kinase-screen.mrc.ac.uk.

Another experiment deals with MARK1 (Homo sapiens, UniProt Q9P0L2).
From the text: as §1

The target in another experiment is HIPK1 (Homo sapiens, UniProt Q86Z02).
Chain of HIPK1 (Q86Z02 whole entry): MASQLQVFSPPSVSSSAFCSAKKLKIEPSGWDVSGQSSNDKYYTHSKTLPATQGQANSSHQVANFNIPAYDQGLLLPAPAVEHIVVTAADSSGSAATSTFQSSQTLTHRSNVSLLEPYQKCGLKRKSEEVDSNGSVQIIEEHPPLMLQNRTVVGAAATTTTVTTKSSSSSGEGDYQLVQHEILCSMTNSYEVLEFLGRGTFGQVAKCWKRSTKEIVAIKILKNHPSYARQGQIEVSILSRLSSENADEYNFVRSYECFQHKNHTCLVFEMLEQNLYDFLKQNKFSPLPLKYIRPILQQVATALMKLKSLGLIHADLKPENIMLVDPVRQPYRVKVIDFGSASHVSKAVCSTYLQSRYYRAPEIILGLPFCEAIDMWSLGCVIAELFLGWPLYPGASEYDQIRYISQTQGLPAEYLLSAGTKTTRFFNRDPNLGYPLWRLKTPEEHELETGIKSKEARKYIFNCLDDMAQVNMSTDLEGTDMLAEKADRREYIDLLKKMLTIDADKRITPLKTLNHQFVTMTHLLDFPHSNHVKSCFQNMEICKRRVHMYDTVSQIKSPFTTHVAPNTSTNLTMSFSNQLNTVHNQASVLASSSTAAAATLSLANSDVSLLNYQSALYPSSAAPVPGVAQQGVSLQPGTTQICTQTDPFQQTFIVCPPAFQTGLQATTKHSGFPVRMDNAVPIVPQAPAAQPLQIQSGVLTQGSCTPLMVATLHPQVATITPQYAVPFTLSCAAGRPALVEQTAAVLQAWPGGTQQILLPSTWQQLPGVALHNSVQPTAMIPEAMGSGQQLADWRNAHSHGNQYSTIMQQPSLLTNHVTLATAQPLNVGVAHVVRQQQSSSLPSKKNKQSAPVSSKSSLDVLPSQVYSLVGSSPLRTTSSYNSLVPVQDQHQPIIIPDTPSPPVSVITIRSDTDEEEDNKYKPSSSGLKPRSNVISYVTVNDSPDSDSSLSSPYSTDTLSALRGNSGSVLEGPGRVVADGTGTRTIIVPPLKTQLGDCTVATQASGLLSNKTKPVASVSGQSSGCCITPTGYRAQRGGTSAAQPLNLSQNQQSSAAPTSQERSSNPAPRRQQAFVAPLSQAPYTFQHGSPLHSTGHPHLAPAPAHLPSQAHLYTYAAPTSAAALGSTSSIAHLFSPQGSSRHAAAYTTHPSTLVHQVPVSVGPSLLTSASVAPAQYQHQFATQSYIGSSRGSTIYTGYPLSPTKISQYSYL
From the text: as §1

For a further experiment, the target named is RIPK2 (Homo sapiens, UniProt O43353).
Chain of RIPK2 (O43353 whole entry): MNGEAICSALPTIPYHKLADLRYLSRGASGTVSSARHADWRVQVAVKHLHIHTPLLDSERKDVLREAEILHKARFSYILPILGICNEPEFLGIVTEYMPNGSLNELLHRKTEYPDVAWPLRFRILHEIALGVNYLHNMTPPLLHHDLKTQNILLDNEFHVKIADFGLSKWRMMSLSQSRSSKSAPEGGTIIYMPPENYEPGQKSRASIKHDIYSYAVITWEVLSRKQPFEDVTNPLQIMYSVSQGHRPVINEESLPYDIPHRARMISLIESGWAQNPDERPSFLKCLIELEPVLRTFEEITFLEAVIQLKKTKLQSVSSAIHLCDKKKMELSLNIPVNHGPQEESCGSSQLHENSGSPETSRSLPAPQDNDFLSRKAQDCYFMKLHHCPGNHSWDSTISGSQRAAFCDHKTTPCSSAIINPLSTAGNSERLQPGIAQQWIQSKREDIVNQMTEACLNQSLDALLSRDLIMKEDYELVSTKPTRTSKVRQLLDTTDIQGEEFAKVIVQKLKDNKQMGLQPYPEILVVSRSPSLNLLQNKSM
From the text: as §1

The next experiment deals with PAK6 (Homo sapiens, UniProt Q9NQU5).
Chain of PAK6 (Q9NQU5 whole entry): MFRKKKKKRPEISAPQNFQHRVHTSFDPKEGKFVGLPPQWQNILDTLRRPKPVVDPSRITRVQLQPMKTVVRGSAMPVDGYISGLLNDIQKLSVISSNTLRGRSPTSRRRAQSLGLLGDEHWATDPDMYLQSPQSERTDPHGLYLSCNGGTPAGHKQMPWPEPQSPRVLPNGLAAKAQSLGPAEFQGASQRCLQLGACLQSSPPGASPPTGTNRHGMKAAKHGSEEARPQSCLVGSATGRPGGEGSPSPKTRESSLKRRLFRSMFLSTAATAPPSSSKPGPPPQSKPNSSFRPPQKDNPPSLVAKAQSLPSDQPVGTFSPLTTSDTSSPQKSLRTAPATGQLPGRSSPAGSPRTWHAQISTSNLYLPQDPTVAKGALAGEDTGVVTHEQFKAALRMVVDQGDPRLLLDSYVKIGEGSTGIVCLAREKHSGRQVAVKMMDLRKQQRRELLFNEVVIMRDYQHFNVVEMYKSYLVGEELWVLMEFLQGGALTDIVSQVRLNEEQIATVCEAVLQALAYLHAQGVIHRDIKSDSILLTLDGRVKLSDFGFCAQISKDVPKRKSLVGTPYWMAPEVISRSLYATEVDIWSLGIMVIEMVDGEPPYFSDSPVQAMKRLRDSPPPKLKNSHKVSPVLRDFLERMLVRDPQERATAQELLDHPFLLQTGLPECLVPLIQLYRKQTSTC
From the text: as §1

Another experiment concerns the target MKK1 (Homo sapiens, UniProt Q02750).
From the text: as §1

A further experiment deals with CLK2 (Homo sapiens, UniProt P49760).
Chain of CLK2 (P49760 whole entry): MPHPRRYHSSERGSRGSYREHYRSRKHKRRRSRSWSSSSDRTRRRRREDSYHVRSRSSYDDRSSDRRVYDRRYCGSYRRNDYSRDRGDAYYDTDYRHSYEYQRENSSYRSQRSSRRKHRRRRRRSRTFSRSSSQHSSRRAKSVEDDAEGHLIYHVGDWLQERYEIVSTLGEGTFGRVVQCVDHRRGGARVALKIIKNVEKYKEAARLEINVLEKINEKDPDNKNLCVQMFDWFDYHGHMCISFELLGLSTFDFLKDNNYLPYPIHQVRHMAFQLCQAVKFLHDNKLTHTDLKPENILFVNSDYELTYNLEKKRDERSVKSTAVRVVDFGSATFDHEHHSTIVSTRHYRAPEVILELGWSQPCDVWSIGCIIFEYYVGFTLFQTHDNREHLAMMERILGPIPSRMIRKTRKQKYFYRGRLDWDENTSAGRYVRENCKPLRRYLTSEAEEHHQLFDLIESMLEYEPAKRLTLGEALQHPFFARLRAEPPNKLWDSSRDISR
From the text: as §1

The next experiment deals with T2, BRSK2 (Homo sapiens, UniProt Q8IWQ3).
T2 sequence (Q8IWQ3 1-736): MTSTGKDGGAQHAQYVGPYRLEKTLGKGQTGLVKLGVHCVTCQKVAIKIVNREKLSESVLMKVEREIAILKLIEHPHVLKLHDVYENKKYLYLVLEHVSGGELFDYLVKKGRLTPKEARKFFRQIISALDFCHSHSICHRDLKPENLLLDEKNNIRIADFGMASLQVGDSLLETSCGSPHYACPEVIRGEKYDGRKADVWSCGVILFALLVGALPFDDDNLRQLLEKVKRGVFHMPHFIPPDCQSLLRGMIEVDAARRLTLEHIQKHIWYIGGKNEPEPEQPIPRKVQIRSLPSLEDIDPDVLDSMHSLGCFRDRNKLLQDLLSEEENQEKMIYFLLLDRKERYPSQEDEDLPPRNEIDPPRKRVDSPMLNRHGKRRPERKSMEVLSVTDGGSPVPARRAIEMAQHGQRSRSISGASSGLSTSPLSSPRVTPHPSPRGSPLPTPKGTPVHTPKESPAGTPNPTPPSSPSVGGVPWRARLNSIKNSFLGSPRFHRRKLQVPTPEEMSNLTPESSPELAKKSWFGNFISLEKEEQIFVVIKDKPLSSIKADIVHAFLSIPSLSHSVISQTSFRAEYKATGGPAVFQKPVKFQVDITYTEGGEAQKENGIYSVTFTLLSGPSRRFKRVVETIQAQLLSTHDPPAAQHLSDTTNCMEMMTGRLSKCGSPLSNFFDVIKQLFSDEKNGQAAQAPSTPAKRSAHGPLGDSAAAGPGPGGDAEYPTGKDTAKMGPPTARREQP
From the text: as §1

In the next experiment the target is PKA (Homo sapiens, UniProt P17612).
From the text: as §1

A further experiment addresses VEGFR1 (Homo sapiens, UniProt P17948).
From the text: as §1

Another experiment deals with TESK1 (Homo sapiens, UniProt Q15569).
Chain of TESK1 (Q15569 whole entry): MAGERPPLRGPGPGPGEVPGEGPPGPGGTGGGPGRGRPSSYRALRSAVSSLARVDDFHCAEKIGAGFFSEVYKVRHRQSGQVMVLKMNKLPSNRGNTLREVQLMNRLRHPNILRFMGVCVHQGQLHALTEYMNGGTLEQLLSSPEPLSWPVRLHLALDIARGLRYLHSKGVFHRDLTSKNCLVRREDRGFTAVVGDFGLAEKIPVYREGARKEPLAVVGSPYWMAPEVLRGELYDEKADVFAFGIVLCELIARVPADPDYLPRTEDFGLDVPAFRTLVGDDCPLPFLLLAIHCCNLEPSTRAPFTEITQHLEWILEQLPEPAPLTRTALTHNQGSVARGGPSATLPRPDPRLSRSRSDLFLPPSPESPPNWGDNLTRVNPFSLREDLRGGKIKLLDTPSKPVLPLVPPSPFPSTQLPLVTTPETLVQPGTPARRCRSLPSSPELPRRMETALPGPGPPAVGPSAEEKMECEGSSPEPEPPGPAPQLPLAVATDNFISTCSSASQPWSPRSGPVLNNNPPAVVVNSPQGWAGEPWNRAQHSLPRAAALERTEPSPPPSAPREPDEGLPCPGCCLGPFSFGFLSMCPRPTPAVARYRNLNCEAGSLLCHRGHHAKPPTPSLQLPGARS
From the text: as §1

For a further experiment, the target named is T3, IRAK4 (Homo sapiens, UniProt Q9NWZ3).
T3 sequence (Q9NWZ3 1-460): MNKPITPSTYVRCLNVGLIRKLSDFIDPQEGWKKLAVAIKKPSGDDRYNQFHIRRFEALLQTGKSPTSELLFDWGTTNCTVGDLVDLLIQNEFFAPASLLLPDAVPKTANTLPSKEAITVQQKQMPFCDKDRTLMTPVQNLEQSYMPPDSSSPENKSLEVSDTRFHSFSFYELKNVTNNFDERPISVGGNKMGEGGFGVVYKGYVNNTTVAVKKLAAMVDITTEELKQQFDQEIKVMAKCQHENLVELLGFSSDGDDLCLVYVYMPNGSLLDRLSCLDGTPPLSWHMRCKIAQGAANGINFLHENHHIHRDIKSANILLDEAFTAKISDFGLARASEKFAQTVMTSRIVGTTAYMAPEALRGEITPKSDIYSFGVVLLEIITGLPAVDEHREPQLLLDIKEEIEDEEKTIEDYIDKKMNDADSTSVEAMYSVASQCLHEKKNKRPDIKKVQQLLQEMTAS
From the text: as §1

The target in the next experiment is PKB beta (Homo sapiens, UniProt P31751).
Chain of PKB beta (P31751 whole entry): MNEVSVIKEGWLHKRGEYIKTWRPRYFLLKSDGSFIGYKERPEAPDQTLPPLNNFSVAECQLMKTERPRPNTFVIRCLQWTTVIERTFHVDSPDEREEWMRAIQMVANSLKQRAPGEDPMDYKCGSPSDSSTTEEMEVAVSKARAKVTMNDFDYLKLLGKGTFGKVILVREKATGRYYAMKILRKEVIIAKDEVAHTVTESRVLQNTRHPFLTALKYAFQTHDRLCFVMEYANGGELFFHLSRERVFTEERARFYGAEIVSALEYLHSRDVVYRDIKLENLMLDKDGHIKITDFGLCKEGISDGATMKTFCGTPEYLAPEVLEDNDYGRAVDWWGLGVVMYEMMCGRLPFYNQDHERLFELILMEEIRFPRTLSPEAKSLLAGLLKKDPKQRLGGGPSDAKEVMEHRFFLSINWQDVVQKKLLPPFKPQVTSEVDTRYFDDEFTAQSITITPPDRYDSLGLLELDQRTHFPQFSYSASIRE
From the text: as §1

Another experiment has as its target MLK3 (Homo sapiens, UniProt Q16584).
From the text: as §1

Where two headings read alike, the source gives them in different places.

By remaining activity is commonly meant the signal under treatment as a percentage of the control signal.

Chain of MLK3 (Q16584 whole entry): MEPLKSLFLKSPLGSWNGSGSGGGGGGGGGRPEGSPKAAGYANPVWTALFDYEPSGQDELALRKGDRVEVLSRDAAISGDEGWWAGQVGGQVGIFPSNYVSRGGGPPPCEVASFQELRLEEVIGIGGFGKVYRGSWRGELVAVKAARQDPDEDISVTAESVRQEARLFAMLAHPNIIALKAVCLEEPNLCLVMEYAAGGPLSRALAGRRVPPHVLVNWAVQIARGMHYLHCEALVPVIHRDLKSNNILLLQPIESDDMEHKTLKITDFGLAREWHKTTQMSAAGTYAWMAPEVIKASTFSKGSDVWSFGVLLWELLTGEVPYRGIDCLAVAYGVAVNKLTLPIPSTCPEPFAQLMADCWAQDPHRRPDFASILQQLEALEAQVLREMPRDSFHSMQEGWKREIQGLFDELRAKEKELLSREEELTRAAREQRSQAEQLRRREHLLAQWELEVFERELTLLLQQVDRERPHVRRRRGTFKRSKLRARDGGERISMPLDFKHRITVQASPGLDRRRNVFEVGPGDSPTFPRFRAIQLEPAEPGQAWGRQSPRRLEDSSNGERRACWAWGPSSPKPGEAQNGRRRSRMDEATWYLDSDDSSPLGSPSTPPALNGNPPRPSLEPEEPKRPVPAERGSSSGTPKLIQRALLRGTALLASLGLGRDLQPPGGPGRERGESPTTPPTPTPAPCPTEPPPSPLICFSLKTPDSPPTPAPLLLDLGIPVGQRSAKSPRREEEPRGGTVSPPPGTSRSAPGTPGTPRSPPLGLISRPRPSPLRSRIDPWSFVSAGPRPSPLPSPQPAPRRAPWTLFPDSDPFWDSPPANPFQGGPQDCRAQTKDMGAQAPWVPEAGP

In the case of `COc1ccc(Cl)c(S(=O)(=O)Nc2ccc(-c3nc(OC[C@H]4CNCCO4)c4c(C)n[nH]c4n3)cc2)c1` [290-R, reference compound], the remaining activity at 1 µM came to 90% on GCK; 115% on MARK1; 117% at HIPK1; 124% at RIPK2; 94% at PAK6; 66% at MKK1. For the same molecule, the remaining activity at 1 µM on CLK2 is 88%; at BRSK2 it was 102%; at PKA, 85%; at VEGFR1, 82%; on TESK1, 77%; at IRAK4, 74%. For the same molecule, the remaining activity at 1 µM on PKB beta was 55%; at MLK3, 10%.

Turning to `Cc1ccc(F)c(S(=O)(=O)Nc2ccc(-c3nc(OC[C@H]4CNCCO4)c4cn[nH]c4n3)cc2)c1` [308-R, reference compound], the remaining activity at 1 µM at GCK is 80%; on MARK1 it was 109%; on HIPK1, 73%; on RIPK2, 122%; at PAK6 it was 80%; on MKK1, 62%. Besides, the remaining activity at 1 µM is 104% at CLK2; 82% at BRSK2; 106% at PKA; 95% on VEGFR1; 69% at TESK1; 105% at IRAK4. Moreover, the figures for the remaining activity at 1 µM at PKB beta and at MLK3 were 35% and 24%, respectively.

As to `Cc1ccc(F)c(S(=O)(=O)Nc2ccc(-c3nc(OC[C@H]4CN(CCCCCCOCCOCCOCC(=O)N[C@H](C(=O)N5C[C@H](O)C[C@H]5C(=O)NCc5ccc(-c6scnc6C)cc5)C(C)(C)C)CCO4)c4cn[nH]c4n3)cc2)c1` [SGK3-PROTAC1], the remaining activity at 1 µM on GCK (1 µM) turned out to be 99%; at MARK1 (1 µM), 99%; at HIPK1 (1 µM), 135%; at RIPK2 (1 µM) it was 88%; on PAK6 (1 µM) it was 98%; on MKK1 (1 µM) it was 106%. Further, the remaining activity at 1 µM stood at 104% on CLK2 (1 µM); 97% on BRSK2 (1 µM); 108% on PKA (1 µM); 120% at VEGFR1 (1 µM); 122% on TESK1 (1 µM); 114% on IRAK4 (1 µM). Also, the remaining activity at 1 µM on PKB beta (1 µM) came out at 99%; at MLK3 (1 µM) it was 71%.

In the case of `Cc1ccc(F)c(S(=O)(=O)Nc2ccc(-c3nc(OC[C@H]4CN(CCCCCCOCCOCCOCC(=O)N[C@H](C(=O)N5C[C@@H](O)C[C@H]5C(=O)NCc5ccc(-c6scnc6C)cc5)C(C)(C)C)CCO4)c4cn[nH]c4n3)cc2)c1` [cisSGK3-PROTAC1], the remaining activity at 1 µM at GCK (1 µM) was found to be 96%; on MARK1 (1 µM), 93%; on HIPK1 (1 µM) it was 126%; on RIPK2 (1 µM), 94%; on PAK6 (1 µM), 99%; at MKK1 (1 µM), 102%. Also, the remaining activity at 1 µM at CLK2 (1 µM) was 85%; on BRSK2 (1 µM), 101%; at PKA (1 µM), 111%; on VEGFR1 (1 µM) it was 103%; at TESK1 (1 µM) it was 120%; on IRAK4 (1 µM) it was 98%. The remaining activity at 1 µM turned out to be 101% on PKB beta (1 µM) and 76% on MLK3 (1 µM).
